Measurements from US20070082075A1, “Traditional chinese medicine preparation for treatment of tumor and method of making and using same” (priority 2003, published 2007).
Values joined by “and” are separate entries in the source; they are usually repeats but may differ in a detail not shown here. Equal values may be shown once. Read-outs that look alike come from different tables or passages of the source. Marks after values point to notes of the source that are not given here.

Key:
S180 sarcomas = format: in vivo, Kunming mice
[1] = test system: human gastric cancer cell line MKN; settings: mouse, in vivo
[2] = test system: human liver cancer cell line QGY; settings: mouse, in vivo
mice colon carcinoma C26 = settings: mouse, in vivo, 30 mg/kg
Lewis lung carcinoma = settings: mouse, in vivo

O=P1(N(CCCl)CCCl)NCCCO1 (centres unmarked) [cyclophosphamide]
inhibition rate % (S180 sarcomas; 15.0 mg/kg ip × 7): 45.02*** % | tumor weight (g) x ± SD (S180 sarcomas; 15.0 mg/kg ip × 7): 1.71 ± 0.25 g | inhibition rate % (S180 sarcomas; 30.0 mg/kg ip × 7): 84.24*** % | tumor weight (g) x ± SD (S180 sarcomas; 30.0 mg/kg ip × 7): 0.49 ± 0.12 g | inhibition ratio % [1]: 88.11*** % and 89.06*** % | tumor weight x ± SD [1]: 0.17 ± 0.15 and 0.14 ± 0.05 | inhibition ratio % [2]: 88.79*** % and 89.05*** % | tumor weight x ± SD [2]: 0.25 ± 0.14 and 0.22 ± 0.08 | inhibition ratio % (mice colon carcinoma C26): 91.02*** % and 79.12*** % | tumor weight x ± SD (mice colon carcinoma C26): 0.22 ± 0.06 and 0.19 ± 0.06 | inhibition ratio % (mice colon carcinoma C26; ip): 91.90*** % and 81.35*** % | tumor weight x ± SD (mice colon carcinoma C26; ip): 0.22 ± 0.06 and 0.18 ± 0.06 | inhibition ratio % (Lewis lung carcinoma): 88.32*** % and 88.49*** % | tumor weight x ± SD (Lewis lung carcinoma): 0.25 ± 0.07 and 0.29 ± 0.07
